# Measured values reported in US10350271B2, “Lipidated peptides for lowering blood glucose” (USTAV ORGANICKE CHEMIE A BIOCHEMIE AKADEMIE VED CR, V.V.I., priority 2014, dated 2019).
# Like-named read-outs stand apart in the source and are kept apart here. Marks after values point to notes of the source that are not given here. Numbered stars: 1 amine (or outer) side, 2 acyl side, 3 side chain; on linkers, the order of the positions; unused ones are H or OH. Side chains are listed from the residue outwards. Ends that are not written are not given here. Peptide text beside a SMILES is read from it. * marks the point of attachment. γGlu = O=C(O)[C@H](CCC(=O)[*:2])N[*:1]; Palmitoyl = CCCCCCCCCCCCCCCC(=O)*
# Assays:
# [1] = tested on: C57BL/6 mice; assay: Food intake in fasted mice after SC injection; format: in vivo; conditions: 5 mg/kg SC, 45 min after injection
# Method in brief: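 Saline, PrRP or a lipidated analog was injected SC (1-10 mg/kg) after a 17 h fast with free water, animals housed singly.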
# [2] = tested on: Wistar rats; assay: Food intake in fasted rats after SC injection; format: in vivo; conditions: overnight fasted rats, compared to controls given vehicle
# Method: (§1) NMRI mice, C57BL/6 mice, and Wistar rats (AnLab, Prague, Czech Republic) were housed in a temperature of 23° C. and a daily cycle of 12 h light and dark (light from 6:00). They were given ad libitum water and a standard chow diet that contained 25, 9 and 66% of calories of protein, fat and carbohydrate respectively. Energy content of the feed was 3.4 kcal/g (St-1, Mlýn Kocanda, Czech Republic). Db/db mice and their controls (C57BL/6 background) were obtained from Taconic (Denmark), housed under the same conditions as described above, and fed by Altromin (Taconic, Denmark). ZDF-Lepr^fa/Crl, diabetic fa/fa male rats were obtained from Charles River (France), housed under same conditions as described above, and fed with a Purina 5008 diet (IPS Product Supplies Limited, UK). All experiments followed the ethical guidelines for animal experiments and the law of the Czech Republic Nr. 246/1992.
# In experiments with C57BL/6 mice or Wistar rats, food intake was measured with overnight fasted animals in individual cages. Food was withdrawn 17 hours prior to injection of lipidated analog of prolactin releasing peptide (PrRP); free access to water was maintained. The administration of either saline, PrRP, or lipidated analogs was performed by SC injection at doses of 1-10 mg/kg (which corresponded to a volume of 0.2 ml/mouse and 0.1 ml/100 g weight of rat). Fifteen minutes after the lipidated analog of prolactin releasing peptide (PrRP) administration, the mice were given pre-weighed food. The food was then weighed every 30 minutes for 5-10 hours. The administration of each dose was performed at least twice, and each group of mice consisted of at least 6 mice.
# [3] = biological target: T1, rat PrRP receptor (Rattus norvegicus, UniProt Q64121); assay: Competitive binding in RC-4B/C rat pituitary cells (125I-rat PrRP31); conditions: for % of PrRP31, RC-4B/C rat pituitary cells: affinity relative to PrRP31
# T1 construct: host or cells: RC-4B/C rat pituitary cell line
# T1 sequence (Q64121 1-370): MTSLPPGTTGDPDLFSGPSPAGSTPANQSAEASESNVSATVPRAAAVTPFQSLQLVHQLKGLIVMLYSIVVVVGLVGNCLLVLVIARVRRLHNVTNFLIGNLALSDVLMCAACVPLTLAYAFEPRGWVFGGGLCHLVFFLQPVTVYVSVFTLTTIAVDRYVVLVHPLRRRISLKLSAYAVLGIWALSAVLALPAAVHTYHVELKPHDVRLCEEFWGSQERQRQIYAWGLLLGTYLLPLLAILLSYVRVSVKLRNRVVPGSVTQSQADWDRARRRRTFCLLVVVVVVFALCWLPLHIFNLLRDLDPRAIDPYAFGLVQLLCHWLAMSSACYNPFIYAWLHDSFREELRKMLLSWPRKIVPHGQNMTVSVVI
# Method in brief: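 Displacement of rat 125I-PrRP31 ([…]) by test analogs, 10^−11–10^−4 mol·l^−1, on whole RC-4B/C cells, 60 min RT. Bound counts measured by γ-counter in duplicate, ≥3 repeats, analyzed by nonlinear one-site binding regression.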
# [4] = biological target: T2, human PrRP receptor GPR10 (Homo sapiens, UniProt P49683); assay: Competitive binding in CHO cells transfected with human GPR10 (human 125I-PrRP31); conditions: for % of PrRP31, GPR10 human receptor transfected in CHO cells: affinity relative to PrRP31
# T2 construct: host or cells: CHO cells
# T2 sequence (P49683 1-370): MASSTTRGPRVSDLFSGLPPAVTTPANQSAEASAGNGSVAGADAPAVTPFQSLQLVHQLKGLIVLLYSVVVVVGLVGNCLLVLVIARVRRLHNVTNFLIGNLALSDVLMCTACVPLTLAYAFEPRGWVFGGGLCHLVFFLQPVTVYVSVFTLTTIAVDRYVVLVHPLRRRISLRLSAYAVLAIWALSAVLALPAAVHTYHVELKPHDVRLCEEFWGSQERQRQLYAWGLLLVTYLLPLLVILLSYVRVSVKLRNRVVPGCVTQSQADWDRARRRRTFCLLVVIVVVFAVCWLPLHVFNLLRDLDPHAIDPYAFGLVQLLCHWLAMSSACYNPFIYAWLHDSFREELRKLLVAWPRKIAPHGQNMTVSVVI
# Method in brief: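 Values from one-site nonlinear regression of displacement curves: analogs (final 10^-11 to 10^-4 mol·l^-1) competed with 125I-PrRP31 (final 5×10^-11 mol·l^-1) on adherent human GPR10 CHO cells. Binding ran 1 h at room temperature, pH 7.4 buffer with NaCl, MgCl2, CaCl2, glucose, BSA; cell-bound radioactivity counted after NaOH lysis.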
# [5] = tested on: MAPK/ERK1/2 signaling pathway; conditions: positive control; cited from earlier work
# [6] = tested on: ZDF diabetic rats; assay: 21 days repeated administration in diabetic ZDF rats (food intake, OGTT, metabolic parameters); format: in vivo; conditions: for Cumulative food intake Day 1 / Cumulative food intake Day 1-7 / Cumulative food intake Day 1-14 / Cumulative food intake Day 1-21 / Cholesterol / Insulin / Leptin: ZDF rats
# Method: Rats were subjected to a 21-day food intake experiment. ZDF rats were IP injected with either phosphate-buffered saline pH6 (control) or compound 43 or 52 at a dose of 1 and 5 mg/kg (n=8), twice a day for 21 days. After 21 days of treatment, rats were fasted overnight and OGTT was performed. After initial blood glucose measurement, 2 g/kg glucose solution was administered by oral gavage. Blood glucose was then measured at 15, 30, 60, 90, 120 and 180 min.
# as §1
# The ZDF rats were treated with vehicle or analogs 43 and 52 (1 and 5 mg/kg IP) dissolved in phosphate buffered saline, pH 6, twice daily for 21 days and sacrificed on day 22. Food intake was measured daily up to day 22. Leptin, insulin, cholesterol and HbA1c levels were measured on day 21. Glucose tolerance test (OGTT) was also performed on day 21.
# Rats were subjected to a 21-day food intake experiment. ZDF rats were IP injected with either phosphate-buffered saline pH6 (control) or compound 43 or 52 at a dose of 1 and 5 mg/kg (n=8), twice a day for 21 days. After 21 days of treatment, rats were fasted overnight and OGTT was performed. After initial blood glucose measurement, 2 g/kg glucose solution was administered by oral gavage. Blood glucose was then measured at 15, 30, 60, 90, 120 and 180 min. […] The statistical significance, denoted by the asterisk (*), was *P<0.05.
compound,measurement,setting,value
CCCCCCCCCCCCCCCC(=O)N[C@@H](CCC(=O)NCCCC[C@H](NC(=O)[C@@H](NC(=O)[C@H](CCC(=O)O)NC(=O)[C@H](CCSC)NC(=O)[C@H](CO)NC(=O)[C@H](Cc1c[nH]cn1)NC(=O)[C@H](CCCNC(=N)N)NC(=O)[C@H](Cc1c[nH]cn1)NC(=O)[C@@H](NC(=O)[C@H](CCC(=O)O)NC(=O)[C@@H](N)CO)[C@@H](C)O)[C@@H](C)CC)C(=O)N[C@H](C(=O)N1CCC[C@H]1C(=O)N[C@@H](CC(=O)O)C(=O)N[C@H](C(=O)N[C@@H](CC(N)=O)C(=O)N1CCC[C@H]1C(=O)N[C@@H](C)C(=O)N[C@@H](Cc1c[nH]c2ccccc12)C(=O)N[C@@H](Cc1ccc(O)cc1)C(=O)N[C@@H](C)C(=O)N[C@@H](CO)C(=O)N[C@@H](CCCNC(=N)N)C(=O)NCC(=O)N[C@H](C(=O)N[C@@H](CCCNC(=N)N)C(=O)N1CCC[C@H]1C(=O)N[C@H](C(=O)NCC(=O)N[C@@H](CCCNC(=N)N)C(=O)N[C@@H](Cc1ccccc1)C(N)=O)C(C)C)[C@@H](C)CC)[C@@H](C)CC)[C@@H](C)O)C(=O)O [Analog 55] (H-SETHRHSMEIK([γGlu-Palmitoyl])TPDINPAWYASRGIRPVGRF-NH2),Food intake in mice % of saline-treated group,[1],12%
same,Food intake in rats,[2],significantly reduced
same,"% of PrRP31, RC-4B/C rat pituitary cells",[3],236%
same,Ki,"[4]; CHO cells, human 125I-PrRP31, read-out: Ki, GPR10 human receptor transfected in CHO cells",4.72 ± 0.35 nM
same,"% of PrRP31, GPR10 human receptor transfected in CHO cells",[4],83%
"PrRP31: prolactin-releasing peptide composed of 31 amino acids, positive control; rat or human form not stated (SRAHQHSMETRTPDINPAWYTGRGIRPVGRF-NH2; ends and bridges not checked)",Initiation of MAPK/ERK1/2 signaling,[5],shown to initiate MAPK/ERK1/2 signaling
CCCCCCCCCCCCCCCC(=O)N[C@@H](CCC(=O)NCCCC[C@H](NC(=O)[C@@H](NC(=O)[C@H](CCC(=O)O)NC(=O)[C@H](CCSC)NC(=O)[C@H](CO)NC(=O)[C@H](Cc1c[nH]cn1)NC(=O)[C@H](CCCNC(=N)N)NC(=O)[C@H](Cc1c[nH]cn1)NC(=O)[C@@H](NC(=O)[C@H](CCCNC(=N)N)NC(=O)[C@@H](N)CO)[C@@H](C)O)[C@@H](C)CC)C(=O)N[C@H](C(=O)N1CCC[C@H]1C(=O)N[C@@H](CC(=O)O)C(=O)N[C@H](C(=O)N[C@@H](CC(N)=O)C(=O)N1CCC[C@H]1C(=O)N[C@@H](C)C(=O)N[C@@H](Cc1c[nH]c2ccccc12)C(=O)N[C@@H](Cc1ccc(O)cc1)C(=O)N[C@@H](C)C(=O)N[C@@H](CO)C(=O)N[C@@H](CCCNC(=N)N)C(=O)NCC(=O)N[C@H](C(=O)N[C@@H](CCCNC(=N)N)C(=O)N1CCC[C@H]1C(=O)N[C@H](C(=O)NCC(=O)N[C@@H](CCCNC(=N)N)C(=O)N[C@@H](Cc1ccccc1)C(N)=O)C(C)C)[C@@H](C)CC)[C@@H](C)CC)[C@@H](C)O)C(=O)O [Analog 52] (H-SRTHRHSMEIK([γGlu-Palmitoyl])TPDINPAWYASRGIRPVGRF-NH2),Food intake in mice % of saline-treated group,[1],10%
same,Food intake in free fed ZDF diabetic rats,"[6]; 5 mg/kg IP twice daily, vs vehicle",significantly lowered
same,Cumulative food intake Day 1,[6]; 1 mg/kg IP twice daily,43.0 ± 2.2 g
same,Cumulative food intake Day 1-7,[6]; 1 mg/kg IP twice daily,306.9 ± 11.8 g
same,Cumulative food intake Day 1-14,[6]; 1 mg/kg IP twice daily,570.9 ± 17.1 g
same,Cumulative food intake Day 1-21,[6]; 1 mg/kg IP twice daily,811.5 ± 23.6 g
same,Cumulative food intake Day 1,[6]; 5 mg/kg IP twice daily,42.4 ± 2.1 g
same,Cumulative food intake Day 1-7,[6]; 5 mg/kg IP twice daily,287.8 ± 12.5* g
same,Cumulative food intake Day 1-14,[6]; 5 mg/kg IP twice daily,559.0 ± 21.0* g
same,Cumulative food intake Day 1-21,[6]; 5 mg/kg IP twice daily,814.8 ± 26.1 g
same,Cholesterol,"[6]; day 21, 1 mg/kg IP twice daily",3.71 ± 0.16 mmol/L
same,Insulin,"[6]; day 21, 1 mg/kg IP twice daily",268.94 ± 43.40 pmol/L
same,Leptin,"[6]; day 21, 1 mg/kg IP twice daily",16336 ± 1466 pg/mL
same,Cholesterol,"[6]; day 21, 5 mg/kg IP twice daily",3.19 ± 0.16 mmol/L
same,Insulin,"[6]; day 21, 5 mg/kg IP twice daily",183.35 ± 37.49 pmol/L
same,Leptin,"[6]; day 21, 5 mg/kg IP twice daily",11372 ± 427 pg/mL
same,Food intake in rats,[2],significantly reduced
same,Ki,[3],4.23 ± 2.11 nM
same,"% of PrRP31, RC-4B/C rat pituitary cells",[3],57%
same,Ki,[4],5.95 ± 0.72 nM
same,"% of PrRP31, GPR10 human receptor transfected in CHO cells",[4],65%
CCCCCCCCCCCCCCCC(=O)N[C@@H](CCC(=O)N[C@@H](CO)C(=O)N[C@@H](CCCNC(=N)N)C(=O)N[C@H](C(=O)N[C@@H](Cc1c[nH]cn1)C(=O)N[C@@H](CCCNC(=N)N)C(=O)N[C@@H](Cc1c[nH]cn1)C(=O)N[C@@H](CO)C(=O)N[C@@H](CCSC)C(=O)N[C@@H](CCC(=O)O)C(=O)N[C@H](C(=O)N[C@@H](CCCNC(=N)N)C(=O)N[C@H](C(=O)N1CCC[C@H]1C(=O)N[C@@H](CC(=O)O)C(=O)N[C@H](C(=O)N[C@@H](CC(N)=O)C(=O)N1CCC[C@H]1C(=O)N[C@@H](C)C(=O)N[C@@H](Cc1c[nH]c2ccccc12)C(=O)N[C@@H](Cc1ccc(O)cc1)C(=O)N[C@@H](C)C(=O)N[C@@H](CO)C(=O)N[C@@H](CCCNC(=N)N)C(=O)NCC(=O)N[C@H](C(=O)N[C@@H](CCCNC(=N)N)C(=O)N1CCC[C@H]1C(=O)N[C@H](C(=O)NCC(=O)N[C@@H](CCCNC(=N)N)C(=O)N[C@@H](Cc1ccccc1)C(N)=O)C(C)C)[C@@H](C)CC)[C@@H](C)CC)[C@@H](C)O)[C@@H](C)CC)[C@@H](C)O)C(=O)O [Analog 54],Food intake in mice % of saline-treated group,[1],14%
same,Food intake in rats,[2],significantly reduced
same,Ki,"[3]; RC-4B/C cells, displacement of 125I-rat PrRP31, read-out: Ki, RC-4B/C rat pituitary cells ^25I-rat PrRP31",0.5 ± 0.13 nM
same,"% of PrRP31, RC-4B/C rat pituitary cells",[3],119%
same,"% of PrRP31, GPR10 human receptor transfected in CHO cells",[4],57%
